Results taken from PubChem BioAssay AID1745844 (Carcinogenic Potency Database (CPDB), 2022).
Calls of active or inactive are those of the source. No rule for the calls is given here.

System: rodent lifetime carcinogenesis bioassay, tumor incidence TD50
Experiment: chronic cancer bioassays in animals – CPDB, compiled studies (AID 1745844)
[1] = mouse, strain B6AKF1, females, oral dosing, site: any site (literature study), lesion: several types, types named in the paper, dosed 76 weeks, study length 76 weeks
[2] = mouse, strain B6AKF1, females, oral dosing, site: lung, lesion: adenoma, dosed 76 weeks, study length 76 weeks
[3] = mouse, strain B6AKF1, males, oral dosing, site: any site (literature study), lesion: several types, types named in the paper, dosed 76 weeks, study length 76 weeks
[4] = mouse, strain B6AKF1, males, oral dosing, site: liver, lesion: hepatoma, dosed 76 weeks, study length 76 weeks
[5] = mouse, strain B6C3F1, females, oral dosing, site: any site (literature study), lesion: several types, types named in the paper, dosed 76 weeks, study length 76 weeks
[6] = mouse, strain B6C3F1, females, oral dosing, site: liver, lesion: hepatoma, dosed 76 weeks, study length 76 weeks
[7] = mouse, strain B6C3F1, females, oral dosing, site: lung, lesion: several types, types named in the paper, dosed 76 weeks, study length 76 weeks
[8] = mouse, strain B6C3F1, males, oral dosing, site: any site (literature study), lesion: several types, types named in the paper, dosed 76 weeks, study length 76 weeks
[9] = mouse, strain B6C3F1, males, oral dosing, site: liver, lesion: hepatoma, dosed 76 weeks, study length 76 weeks
[10] = mouse, strain B6C3F1, males, oral dosing, site: lung, lesion: adenoma, dosed 76 weeks, study length 76 weeks

CCCCNC(=O)N(CCCC)N=O
303 mg/kg/day: TD50 (rat, strain Donryu, females, in drinking water, site: liver, lesion: adenoma, dosed 75 weeks, study length 75 weeks)
2.23 mg/kg/day: TD50 (rat, strain Donryu, females, in drinking water, site: mammary tissue, wider than the gland, lesion: fibroadenoma, dosed 75 weeks, study length 75 weeks)
22.7 mg/kg/day: TD50 (rat, strain Donryu, females, in drinking water, site: mammary gland, lesion: adenocarcinoma, dosed 75 weeks, study length 75 weeks)
2.67 mg/kg/day: TD50 (rat, strain Donryu, females, in drinking water, site: any site (literature study), lesion: several types, types named in the paper, dosed 75 weeks, study length 75 weeks)
15.3 mg/kg/day: TD50 (rat, strain Donryu, females, in drinking water, site: uterus, lesion: several types, types named in the paper, dosed 75 weeks, study length 75 weeks)
active: TD50 (rat, strain Donryu, females, in drinking water, site: all sites, lesion: leukemia, dosed 75 weeks, study length 75 weeks) 32 mg/kg/day | TD50 (rat, strain Donryu, females, in drinking water, site: mammary tissue, wider than the gland, lesion: several types, types named in the paper, dosed 75 weeks, study length 75 weeks) 4.28 mg/kg/day

CC(=O)Nc1ccc(CC(=O)O)cc1
inactive: carcinogen call (mouse, strain B6C3F1, females, in feed, site: liver, lesion: hepatocellular adenoma, dosed 78 weeks, study length 78 weeks) negative | carcinogen call (mouse, strain B6C3F1, females, in feed, site: liver, lesion: hepatocellular carcinoma, dosed 78 weeks, study length 78 weeks) negative | carcinogen call (mouse, strain B6C3F1, females, in feed, site: lung, lesion: several types, types named in the paper, dosed 78 weeks, study length 78 weeks) negative | carcinogen call (mouse, strain B6C3F1, males, in feed, site: liver, lesion: hepatocellular adenoma, dosed 78 weeks, study length 78 weeks) negative | TD50 (mouse, strain B6C3F1, males, in feed, site: lung, lesion: alveolar/bronchiolar adenoma, dosed 78 weeks, study length 78 weeks) 27700 mg/kg/day | TD50 (mouse, strain B6C3F1, males, in feed, site: lung, lesion: alveolar/bronchiolar carcinoma, dosed 78 weeks, study length 78 weeks) 56100 mg/kg/day | carcinogen call (rat, strain Fischer 344, females, in feed, site: liver, lesion: several types, types named in the paper, dosed 104 weeks, study length 104 weeks) negative | carcinogen call (rat, strain Fischer 344, males, in feed, site: liver, lesion: hepatocellular adenoma, dosed 104 weeks, study length 104 weeks) negative | carcinogen call (rat, strain Fischer 344, males, in feed, site: liver, lesion: hepatocellular carcinoma, dosed 104 weeks, study length 104 weeks) negative

COCCl
32.9 mg/kg/day: TD50 (hamster, strain Syrian Golden, males, inhaled, site: lung, lesion: adenocarcinoma, dosed 113 weeks, study length 124 weeks)
active: TD50 (hamster, strain Syrian Golden, males, inhaled, site: several sites, sites named in the paper, lesion: several types, types named in the paper, dosed 113 weeks, study length 124 weeks) 16.4 mg/kg/day | TD50 (rat, strain Sprague-Dawley, males, inhaled, site: several sites, sites named in the paper, lesion: several types, types named in the paper, dosed 113 weeks, study length 122 weeks) 5.5 mg/kg/day

CN(Cc1cnc2nc(N)nc(N)c2n1)c1ccc(C(=O)N[C@@H](CCC(=O)O)C(=O)O)cc1
167 mg/kg/day: TD50 (hamster, strain Syrian Golden, females, in feed, site: liver, lesion: several types, types named in the paper, dosed 101 weeks, study length 105 weeks)
inactive: carcinogen call (hamster, strain Syrian Golden, females, in feed, site: any site (literature study), lesion: several types, types named in the paper, dosed 101 weeks, study length 105 weeks) negative | TD50 (hamster, strain Syrian Golden, females, in feed, site: liver, lesion: hepatocellular adenoma, dosed 101 weeks, study length 105 weeks) 51.1 mg/kg/day | carcinogen call (hamster, strain Syrian Golden, males, in feed, site: any site (literature study), lesion: several types, types named in the paper, dosed 108 weeks, study length 115 weeks) negative | carcinogen call (hamster, strain Syrian Golden, males, in feed, site: liver, lesion: one or several types, types not named, dosed 108 weeks, study length 115 weeks) negative | TD50 (mouse, strain Swiss, females, in feed, site: any site (literature study), lesion: several types, types named in the paper, dosed 120 weeks, study length 120 weeks) 48 mg/kg/day | TD50 (mouse, strain Swiss, females, in feed, site: liver, lesion: hepatocellular carcinoma, dosed 120 weeks, study length 120 weeks) 65.2 mg/kg/day | carcinogen call (mouse, strain Swiss, females, in feed, site: lung, lesion: several types, types named in the paper, dosed 120 weeks, study length 120 weeks) negative | carcinogen call (mouse, strain Swiss, males, in feed, site: any site (literature study), lesion: several types, types named in the paper, dosed 118 weeks, study length 120 weeks) negative | carcinogen call (mouse, strain Swiss, males, in feed, site: liver, lesion: hemangioma, dosed 118 weeks, study length 120 weeks) negative | carcinogen call (mouse, strain Swiss, males, in feed, site: lung, lesion: several types, types named in the paper, dosed 118 weeks, study length 120 weeks) negative | TD50 (rat, strain BR 46, males, i.v., site: any site (literature study), lesion: benign tumor, dosed 52 weeks, study length 104 weeks) 0.409 mg/kg/day | TD50 (rat, strain BR 46, males, i.v., site: any site (literature study), lesion: malignant tumor, dosed 52 weeks, study length 104 weeks) 2.96 mg/kg/day | TD50 (rat, strain BR 46, males, i.v., site: any site (literature study), lesion: several types, types named in the paper, dosed 52 weeks, study length 104 weeks) 0.33 mg/kg/day | carcinogen call (rat, strain Sprague-Dawley, females, i.p., site: any site (literature study), lesion: malignant tumor, dosed 104 weeks, study length 104 weeks) negative | carcinogen call (rat, strain Sprague-Dawley, males, i.p., site: any site (literature study), lesion: malignant tumor, dosed 104 weeks, study length 104 weeks) negative

C=C1C[C@]23C[C@@]1(O)CC[C@H]2[C@@]12C=C[C@H](O)[C@@](C)(C(=O)O1)[C@H]2[C@@H]3C(=O)O
inactive: carcinogen call [1] negative | carcinogen call (mouse, strain B6AKF1, females, oral dosing, site: liver, lesion: hepatoma, dosed 76 weeks, study length 76 weeks) negative | carcinogen call [2] negative | TD50 [3] 151 mg/kg/day | TD50 [4] 316 mg/kg/day | TD50 (mouse, strain B6AKF1, males, oral dosing, site: lung, lesion: several types, types named in the paper, dosed 76 weeks, study length 76 weeks) 460 mg/kg/day | TD50 [5] 1150 mg/kg/day | carcinogen call [6] negative | carcinogen call [7] negative | TD50 [8] 214 mg/kg/day | TD50 [9] 460 mg/kg/day | TD50 [10] 952 mg/kg/day

CCOC(=O)N(C)N=O
active: TD50 (hamster, strain Syrian Golden, both sexes, by gavage, site: esophagus, lesion: epidermoid carcinoma, dosed 27 weeks, study length 73 weeks) 0.127 mg/kg/day | carcinogen call (hamster, strain Syrian Golden, both sexes, by gavage, site: forestomach, lesion: epidermoid carcinoma, dosed 27 weeks, study length 73 weeks) positive

CC(O)CN(C)c1ccc(NN)nn1 (stereo not drawn)
inactive: TD50 (mouse, strain B6C3F1, females, in drinking water, site: liver, lesion: several types, types named in the paper, dosed 80 weeks, study length 123 weeks) 503 mg/kg/day | carcinogen call (mouse, strain B6C3F1, females, in drinking water, site: lung, lesion: several types, types named in the paper, dosed 80 weeks, study length 123 weeks) negative | TD50 (mouse, strain B6C3F1, males, in drinking water, site: liver, lesion: several types, types named in the paper, dosed 80 weeks, study length 123 weeks) 922 mg/kg/day | carcinogen call (mouse, strain B6C3F1, males, in drinking water, site: lung, lesion: several types, types named in the paper, dosed 80 weeks, study length 123 weeks) negative | TD50 (mouse, strain BALB/cLacDp, females, in drinking water, site: all sites, lesion: lymphoma, dosed 80 weeks, study length 123 weeks) 408 mg/kg/day | carcinogen call (mouse, strain BALB/cLacDp, females, in drinking water, site: liver, lesion: hepatocellular adenoma, dosed 80 weeks, study length 123 weeks) negative | carcinogen call (mouse, strain BALB/cLacDp, females, in drinking water, site: lung, lesion: several types, types named in the paper, dosed 80 weeks, study length 123 weeks) negative

Cc1ccccc1N=O
active: TD50 (rat, strain Fischer 344, males, in feed, site: liver, lesion: hepatoma, dosed 72 weeks, study length 93 weeks) 59.2 mg/kg/day | TD50 (rat, strain Fischer 344, males, in feed, site: liver, lesion: several types, types named in the paper, dosed 72 weeks, study length 93 weeks) 50.7 mg/kg/day | TD50 (rat, strain Fischer 344, males, in feed, site: skin, lesion: fibroma, dosed 72 weeks, study length 93 weeks) 55.8 mg/kg/day | TD50 (rat, strain Fischer 344, males, in feed, site: spleen, lesion: fibroma, dosed 72 weeks, study length 93 weeks) 87 mg/kg/day | TD50 (rat, strain Fischer 344, males, in feed, site: urinary bladder, lesion: papilloma, dosed 72 weeks, study length 93 weeks) 78.8 mg/kg/day | TD50 (rat, strain Fischer 344, males, in feed, site: urinary bladder, lesion: several types, types named in the paper, dosed 72 weeks, study length 93 weeks) 71.5 mg/kg/day
303 mg/kg/day: TD50 (rat, strain Fischer 344, males, in feed, site: peritoneal cavity, lesion: spindle-cell sarcoma, dosed 72 weeks, study length 93 weeks)
195 mg/kg/day: TD50 (rat, strain Fischer 344, males, in feed, site: peritoneal cavity, lesion: mesothelioma, dosed 72 weeks, study length 93 weeks)

CC(=O)O[C@]1(C(C)=O)CC[C@H]2[C@@H]3C=C(Cl)C4=CC(=O)CC[C@]4(C)[C@H]3CC[C@@]21C (tested in a mixture with another compound)
5.98 mg/kg/day: TD50 (mouse, strain C3H (MTV+), females, in feed, site: mammary tissue, wider than the gland, lesion: one or several types, types not named, dosed 104 weeks, study length 104 weeks)
1.76 mg/kg/day: TD50 (mouse, strain (C3H x RIII)F1 (MTV+), males, in feed, site: mammary tissue, wider than the gland, lesion: one or several types, types not named, dosed 104 weeks, study length 104 weeks)
2.12 mg/kg/day: TD50 (mouse, strain RIII (MTV+), females, in feed, site: mammary tissue, wider than the gland, lesion: one or several types, types not named, dosed 104 weeks, study length 104 weeks)

O=NN(CCO)CC(O)CO (stereo not drawn)
52.7 mg/kg/day: TD50 (hamster, strain Syrian Golden, females, by gavage, site: trachea, lesion: adenoma, dosed 50 weeks, study length 104 weeks)
active: TD50 (rat, strain Fischer 344, females, in drinking water, site: liver, lesion: hepatocellular carcinoma, dosed 75 weeks, study length 120 weeks) 11.5 mg/kg/day | TD50 (rat, strain Fischer 344, females, in drinking water, site: liver, lesion: neoplastic nodule, dosed 75 weeks, study length 120 weeks) 8.69 mg/kg/day | TD50 (rat, strain Fischer 344, females, in drinking water, site: liver, lesion: several types, types named in the paper, dosed 75 weeks, study length 120 weeks) 5.98 mg/kg/day

CC(C)Oc1ccc(Nc2ccccc2)cc1
inactive: TD50 [1] 1200 mg/kg/day | TD50 (mouse, strain B6AKF1, females, oral dosing, site: liver, lesion: angioma, dosed 76 weeks, study length 76 weeks) 2650 mg/kg/day | carcinogen call [2] negative | TD50 [3] 985 mg/kg/day | TD50 [4] 1130 mg/kg/day | TD50 (mouse, strain B6AKF1, males, oral dosing, site: lung, lesion: adenoma, dosed 76 weeks, study length 76 weeks) 2180 mg/kg/day | TD50 [5] 1290 mg/kg/day | TD50 [6] 2650 mg/kg/day | carcinogen call [7] negative | TD50 [8] 300 mg/kg/day | TD50 [9] 679 mg/kg/day | TD50 [10] 2180 mg/kg/day
